Source: US6777415B2, “Methods of inducing cancer cell death and tumor regression” (priority 2000, dated 2004)

Tests used:
Ras-transformed cells = Ras-transformed cells (Alessi et al., 1995); cited from earlier work
MAPK pathway = assay: Time course of MAPK pathway inhibition after treatment; format: cell-based
Description: (2) A “Ras signaling pathyway inhibitor” is defined herein as an agent that blocks the activity of any protein in the signal transduction pathway shown in FIG. 1. A particularly preferred Ras signaling pathway inhibitor is a “MEK inhibitor”, which is defined herein as an agent that blocks the in vitro enzyme activity of a MEK (MAPK/ERK kinase) protein (preferably inhibiting MEK1 and MEK2), and thus blocks the activation of a MAPK protein as evidenced by a block in the phosphorylation of the MAPK protein. This can be detected by western blot analysis for phosphorylated MAPK as described in, e.g., Dudley et al., Proc Natl Acad Sci. 92:7686-7689 (1995), and Favata et al., J Bio Chem. 273:18623-32(1998).
“Sustained effect” is defined herein as a prolonged/enhanced apoptotic response to combination treatment with a FPT I and a MEK1,2 inhibitor in comparison to single treatment alone. The consequences of a “sustained effect” can be monitored either by measurement of MAPK activity or cell death or apoptosis, as described in previously. The effective time course for inhibition of MAPK pathway by the individual drugs is dose dependent. […] (See, e.g., FIG. 6.

human tumor cell lines = settings: variety of human tumor cell lines, in vitro (Liu et al., 1998); cited from earlier work
[1] = tested on: human tumor cell lines as xenografts; settings: immuno-compromised mice (Liu et al., 1998); cited from earlier work
MEK = settings: Favata et al., 1998; cited from earlier work

Compound: COc1cccc(-c2cc(=O)c3ccccc3o2)c1N [PD098059]
- effect on growth factor-mediated proliferation and anchorage-independent growth (Ras-transformed cells): blocks

Compound: NC(=O)N1CCC(CC(=O)N2CCC(C3c4ncc(Br)cc4CCc4cc(Cl)cc(Br)c43)CC2)CC1 (stereo not drawn) [SCH 66336]
- duration of the MAPK inhibitory effect after treatment (MAPK pathway): ≤ 72 h
- time of optimal MAPK pathway inhibition after treatment (MAPK pathway; dose dependent): 12 to 18 h
- inhibition of anchorage-independent growth (human tumor cell lines): inhibition of anchorage-independent growth
- inhibition of growth as xenografts [1]: inhibition

Compound: N#CC(=C(/N)Sc1ccccc1N)/C(C#N)=C(\N)Sc1ccccc1N [U0126]
- affinity of binding to MEK relative to PD098059 (MEK): higher affinity than PD098059
